{
  "source": "ChEMBL document CHEMBL4382202",
  "about": "“1-(2-Hydroxybenzoyl)-thiosemicarbazides are promising antimicrobial agents targeting d-alanine-d-alanine ligase in bacterio” (Eur J Med Chem, 2018)",
  "key": {"[1]": {"tested_on": "Staphylococcus aureus", "assay": "Inhibition of Ddl in Staphylococcus aureus ATCC 25923 assessed as increase in [D-Ala]/[D-Ala-D-Ala] ratio at 2 times MIC after 30 mins by LC-MS/MS analysis"}, "[2]": {"target": "Tyrosine-protein kinase Lck (Homo sapiens) (UniProt P06239)", "sequence (P06239 2-509 limits assumed)": "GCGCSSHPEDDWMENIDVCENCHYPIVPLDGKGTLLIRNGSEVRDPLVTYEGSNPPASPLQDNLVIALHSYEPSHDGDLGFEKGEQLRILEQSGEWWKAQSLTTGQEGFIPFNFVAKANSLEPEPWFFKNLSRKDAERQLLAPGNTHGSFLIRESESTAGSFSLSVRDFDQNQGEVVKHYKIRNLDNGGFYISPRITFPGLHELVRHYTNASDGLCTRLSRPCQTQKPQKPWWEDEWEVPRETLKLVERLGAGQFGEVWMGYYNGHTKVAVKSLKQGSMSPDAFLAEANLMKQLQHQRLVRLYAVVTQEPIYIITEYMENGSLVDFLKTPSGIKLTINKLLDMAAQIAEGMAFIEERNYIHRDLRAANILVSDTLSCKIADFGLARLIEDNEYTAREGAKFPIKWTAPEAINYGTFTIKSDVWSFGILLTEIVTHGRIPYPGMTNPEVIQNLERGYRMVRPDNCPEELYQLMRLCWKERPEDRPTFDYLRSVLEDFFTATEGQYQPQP", "assay": "Inhibition of human recombinant Lck at 10 uM using Ulight-Poly GAT[EAY(1:1:1)]n as substrate after 10 mins by LANCE analysis relative to control"}, "[3]": {"target": "Cannabinoid receptor 1 (Homo sapiens) (UniProt P21554)", "sequence (P21554 whole entry)": "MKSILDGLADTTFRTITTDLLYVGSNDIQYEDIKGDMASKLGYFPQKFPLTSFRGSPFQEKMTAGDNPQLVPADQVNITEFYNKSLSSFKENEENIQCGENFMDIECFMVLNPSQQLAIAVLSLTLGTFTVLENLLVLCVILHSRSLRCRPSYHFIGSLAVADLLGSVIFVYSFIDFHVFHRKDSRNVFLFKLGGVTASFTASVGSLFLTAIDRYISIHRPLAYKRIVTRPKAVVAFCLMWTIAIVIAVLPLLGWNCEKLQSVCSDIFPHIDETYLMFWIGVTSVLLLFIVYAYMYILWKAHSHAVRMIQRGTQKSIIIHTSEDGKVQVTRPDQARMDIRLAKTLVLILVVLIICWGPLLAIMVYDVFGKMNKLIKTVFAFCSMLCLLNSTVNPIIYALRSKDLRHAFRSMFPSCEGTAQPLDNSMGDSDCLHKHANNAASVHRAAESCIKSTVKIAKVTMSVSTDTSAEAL", "assay": "Displacement of [3H]CP 55940 from human recombinant CB1 receptor at 10 uM after 120 mins by scintillation counting analysis relative to control"}, "[4]": {"target": "Muscarinic acetylcholine receptor M1 (Homo sapiens) (UniProt P11229)", "sequence (P11229 whole entry)": "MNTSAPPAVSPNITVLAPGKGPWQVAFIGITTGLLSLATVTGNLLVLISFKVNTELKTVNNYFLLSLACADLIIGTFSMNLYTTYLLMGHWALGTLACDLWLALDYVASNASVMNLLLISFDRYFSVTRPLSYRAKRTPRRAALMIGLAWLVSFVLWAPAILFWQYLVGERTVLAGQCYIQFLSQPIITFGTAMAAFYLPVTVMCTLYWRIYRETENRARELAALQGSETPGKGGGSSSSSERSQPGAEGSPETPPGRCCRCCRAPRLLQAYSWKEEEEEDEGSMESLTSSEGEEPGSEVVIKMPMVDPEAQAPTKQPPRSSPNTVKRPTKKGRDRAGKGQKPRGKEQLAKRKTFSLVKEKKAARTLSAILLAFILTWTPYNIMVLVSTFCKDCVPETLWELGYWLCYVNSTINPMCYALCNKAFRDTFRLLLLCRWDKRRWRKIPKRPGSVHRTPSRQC", "assay": "Displacement of […] from human recombinant M1 receptor at 10 uM after 60 mins by scintillation counting analysis relative to control"}, "[5]": {"tested_on": "Escherichia coli", "assay": "Inhibition of Escherichia coli DNA topoisomerase 4 at 10 uM using interlinked kDNA as substrate after 1 hr by ethidium bromide staining-based agarose gel electrophoresis relative to control"}, "[6]": {"target": "cGMP-inhibited 3',5'-cyclic phosphodiesterase 3A (Homo sapiens) (UniProt Q14432)", "sequence (Q14432 whole entry)": "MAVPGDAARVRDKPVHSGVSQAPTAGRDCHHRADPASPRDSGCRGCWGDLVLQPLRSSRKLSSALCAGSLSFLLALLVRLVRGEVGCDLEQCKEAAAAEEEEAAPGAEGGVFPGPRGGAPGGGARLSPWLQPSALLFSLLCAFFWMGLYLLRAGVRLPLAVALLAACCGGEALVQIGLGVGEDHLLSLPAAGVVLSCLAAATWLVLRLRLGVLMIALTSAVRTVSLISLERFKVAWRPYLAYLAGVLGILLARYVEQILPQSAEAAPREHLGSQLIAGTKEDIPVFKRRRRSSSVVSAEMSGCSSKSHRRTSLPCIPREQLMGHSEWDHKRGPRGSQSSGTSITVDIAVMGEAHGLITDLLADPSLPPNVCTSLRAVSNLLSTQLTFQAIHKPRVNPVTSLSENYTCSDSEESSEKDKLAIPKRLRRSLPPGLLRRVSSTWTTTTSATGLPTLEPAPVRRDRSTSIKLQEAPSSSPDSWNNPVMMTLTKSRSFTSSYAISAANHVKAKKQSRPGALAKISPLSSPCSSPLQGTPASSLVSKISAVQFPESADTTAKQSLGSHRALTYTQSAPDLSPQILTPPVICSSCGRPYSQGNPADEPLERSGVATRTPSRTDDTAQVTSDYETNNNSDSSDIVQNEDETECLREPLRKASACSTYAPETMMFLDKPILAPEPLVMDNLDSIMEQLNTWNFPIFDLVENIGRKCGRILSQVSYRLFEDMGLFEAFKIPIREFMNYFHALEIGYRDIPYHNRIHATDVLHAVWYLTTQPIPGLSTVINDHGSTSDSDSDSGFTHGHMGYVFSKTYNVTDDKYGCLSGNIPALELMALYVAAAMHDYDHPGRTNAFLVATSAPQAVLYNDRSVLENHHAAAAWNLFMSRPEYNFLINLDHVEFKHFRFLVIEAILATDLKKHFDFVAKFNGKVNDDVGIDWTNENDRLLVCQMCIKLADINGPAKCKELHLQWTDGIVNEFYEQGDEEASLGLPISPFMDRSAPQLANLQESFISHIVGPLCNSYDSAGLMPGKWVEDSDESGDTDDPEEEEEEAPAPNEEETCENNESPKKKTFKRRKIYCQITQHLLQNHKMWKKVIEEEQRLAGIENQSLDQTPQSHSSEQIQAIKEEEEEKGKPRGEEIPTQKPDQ", "assay": "Inhibition of human recombinant PDE3A using [3H]cAMP at 10 uM after 20 mins by scintillation counting analysis relative to control"}, "[7]": {"target": "T1, D-alanine--D-alanine ligase (Enterococcus faecalis (strain ATCC 700802 / V583)) (UniProt Q47758)", "T1 sequence (whole entry)": "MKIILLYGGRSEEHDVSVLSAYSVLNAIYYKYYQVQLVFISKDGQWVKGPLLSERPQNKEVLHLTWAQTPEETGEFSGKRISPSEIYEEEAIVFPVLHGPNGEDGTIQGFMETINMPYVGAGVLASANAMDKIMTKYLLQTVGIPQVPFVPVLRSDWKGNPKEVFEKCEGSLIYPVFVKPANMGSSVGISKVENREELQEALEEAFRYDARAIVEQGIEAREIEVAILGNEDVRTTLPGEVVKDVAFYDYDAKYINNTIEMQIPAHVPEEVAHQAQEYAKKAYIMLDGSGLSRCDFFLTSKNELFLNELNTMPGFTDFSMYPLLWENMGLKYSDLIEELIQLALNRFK", "assay": "Mixed non-competitive type inhibition of Enterococcus faecalis JH2-2 C-terminal 6His-tagged DdlB expressed in Escherichia coli LMG194 at 1 to 10 uM preincubated for 30 mins followed increasing substrate and fixed ATP addition and measured after 20 mins by Biomol Green reagent assay"}, "[8]": {"target": "T1, D-alanine--D-alanine ligase (Enterococcus faecalis (strain ATCC 700802 / V583))", "assay": "Inhibition of Enterococcus faecalis JH2-2 C-terminal 6His-tagged DdlB expressed in Escherichia coli LMG194 assessed as Vmax/Km of ATP at 10 uM by Biomol Green reagent assay (reference value: 0.3 /min)"}, "[9]": {"target": "5-hydroxytryptamine receptor 1A (Homo sapiens) (UniProt P08908)", "assay": "Displacement of [3H]8-OH-DPAT from recombinant human 5-HT1A receptor at 10 uM after 60 mins by scintillation counting analysis relative to control"}, "[10]": {"target": "L-lactate dehydrogenase A chain (Homo sapiens) (UniProt P00338)", "assay": "Inhibition of human recombinant full-length LDHA at 10 uM using sodium pyruvate as substrate after 60 mins by resazurin dye-based assay relative to control"}, "[11]": {"target": "GABA-A receptor; alpha-1/beta-2/gamma-2 (Homo sapiens) (UniProt P14867+P47870+P18507)", "assay": "Displacement of [3H]muscimol from recombinant human GABAalpha1beta2gamma2 at 10 uM after 120 mins by scintillation counting method relative to control", "assay_type": "protein-complex assay"}, "[12]": {"target": "Angiotensin-converting enzyme (Homo sapiens) (UniProt P12821)", "assay": "Inhibition of human recombinant ACE at 10 uM using Abz-FRK(Dnp)-P-OH as substrate after 30 mins by fluorimetric analysis relative to control"}, "[13]": {"target": "D-3-phosphoglycerate dehydrogenase (Homo sapiens) (UniProt O43175)", "assay": "Inhibition of human recombinant C-terminal His-tagged PHGDH (1 to 533 residues) expressed in Escherichia coli at 10 uM using 3-phosphoglycerate as substrate relative to control"}, "[14]": {"tested_on": "Pseudomonas aeruginosa", "assay": "Antibacterial activity against Pseudomonas aeruginosa PAO1 after 18 to 24 hrs by microdilution assay", "assay_type": "functional, organism-based"}, "[15]": {"target": "DNA gyrase (Staphylococcus aureus) (UniProt P0A0K8+P20831)", "sequence (P0A0K8 2-644 limits assumed)": "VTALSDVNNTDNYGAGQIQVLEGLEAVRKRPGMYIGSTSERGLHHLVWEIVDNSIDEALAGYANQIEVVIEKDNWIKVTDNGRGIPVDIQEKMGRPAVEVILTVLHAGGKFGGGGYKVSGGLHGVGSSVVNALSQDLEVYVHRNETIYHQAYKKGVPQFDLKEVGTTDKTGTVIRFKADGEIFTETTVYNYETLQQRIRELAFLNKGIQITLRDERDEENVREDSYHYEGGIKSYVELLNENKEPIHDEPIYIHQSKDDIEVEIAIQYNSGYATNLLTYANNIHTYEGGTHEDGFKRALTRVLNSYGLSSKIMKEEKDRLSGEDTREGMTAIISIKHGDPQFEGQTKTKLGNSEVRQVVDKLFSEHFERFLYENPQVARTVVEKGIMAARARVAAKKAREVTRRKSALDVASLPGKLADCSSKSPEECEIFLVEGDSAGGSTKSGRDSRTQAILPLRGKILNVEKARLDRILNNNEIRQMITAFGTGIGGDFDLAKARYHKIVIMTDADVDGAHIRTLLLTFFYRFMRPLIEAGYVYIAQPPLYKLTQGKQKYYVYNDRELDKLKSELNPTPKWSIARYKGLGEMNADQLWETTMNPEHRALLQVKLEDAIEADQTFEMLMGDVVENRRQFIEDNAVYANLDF", "sequence (P20831 whole entry partner)": "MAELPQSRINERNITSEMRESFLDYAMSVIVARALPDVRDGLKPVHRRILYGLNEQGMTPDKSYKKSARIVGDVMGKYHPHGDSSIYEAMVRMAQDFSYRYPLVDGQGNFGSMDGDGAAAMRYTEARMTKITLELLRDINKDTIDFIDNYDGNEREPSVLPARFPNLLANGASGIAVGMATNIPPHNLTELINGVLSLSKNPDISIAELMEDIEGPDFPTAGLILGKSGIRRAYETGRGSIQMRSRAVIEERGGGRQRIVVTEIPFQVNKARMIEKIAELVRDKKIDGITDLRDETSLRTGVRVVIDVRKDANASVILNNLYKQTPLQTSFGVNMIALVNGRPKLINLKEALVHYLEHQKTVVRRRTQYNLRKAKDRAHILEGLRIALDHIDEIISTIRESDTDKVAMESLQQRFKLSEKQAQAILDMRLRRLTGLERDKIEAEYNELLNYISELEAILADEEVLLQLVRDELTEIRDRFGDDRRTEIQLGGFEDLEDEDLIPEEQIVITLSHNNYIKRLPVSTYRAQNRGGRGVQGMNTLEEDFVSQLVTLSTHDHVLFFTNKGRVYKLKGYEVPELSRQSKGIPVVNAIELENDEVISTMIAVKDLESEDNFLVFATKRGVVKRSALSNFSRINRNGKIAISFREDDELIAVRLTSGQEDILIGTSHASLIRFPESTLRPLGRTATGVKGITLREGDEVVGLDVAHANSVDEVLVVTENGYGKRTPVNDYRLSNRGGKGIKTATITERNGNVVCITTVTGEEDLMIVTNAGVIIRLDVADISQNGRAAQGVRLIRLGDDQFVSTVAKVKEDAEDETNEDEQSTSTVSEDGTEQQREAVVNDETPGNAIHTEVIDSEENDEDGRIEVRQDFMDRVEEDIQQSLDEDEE", "assay": "Inhibition of Staphylococcus aureus DNA gyrase at 10 uM using supercoiled pBR322 DNA as substrate after 1 hr by ethidium bromide staining-based agarose gel electrophoresis relative to control", "assay_type": "protein-complex assay"}, "[16]": {"tested_on": "Staphylococcus aureus", "assay": "Bactericidal activity against Staphylococcus aureus ATCC 25923 assessed as reduction of bacterial load at 2 to 5 times MIC after 24 hrs by time kill assay", "assay_type": "functional, organism-based"}, "[17]": {"target": "Arginase-1 (Homo sapiens) (UniProt P05089)", "sequence (P05089 whole entry)": "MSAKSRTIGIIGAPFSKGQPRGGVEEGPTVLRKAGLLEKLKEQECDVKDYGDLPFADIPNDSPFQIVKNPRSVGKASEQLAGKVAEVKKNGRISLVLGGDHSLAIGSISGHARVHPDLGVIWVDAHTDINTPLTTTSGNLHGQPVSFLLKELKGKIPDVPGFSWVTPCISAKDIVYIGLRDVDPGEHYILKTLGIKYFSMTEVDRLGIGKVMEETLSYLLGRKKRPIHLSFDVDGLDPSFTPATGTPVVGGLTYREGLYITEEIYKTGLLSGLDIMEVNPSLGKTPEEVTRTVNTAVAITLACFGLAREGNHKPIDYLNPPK", "assay": "Inhibition of human recombinant Arg1 at 10 uM using L-arginine as substrate after 5 mins in presence of [guanidino-14C]-L-arginine by liquid scintillation counting analysis relative to control"}, "[18]": {"target": "T1, D-alanine--D-alanine ligase (Enterococcus faecalis (strain ATCC 700802 / V583))", "assay": "Inhibition of Enterococcus faecalis JH2-2 C-terminal 6His-tagged DdlB expressed in Escherichia coli LMG194 assessed as Vmax/Km of D-Ala at 1 uM by Biomol Green reagent assay (reference value: 11.02 /min)"}, "[19]": {"target": "T1, D-alanine--D-alanine ligase (Enterococcus faecalis (strain ATCC 700802 / V583))", "assay": "Inhibition of Enterococcus faecalis JH2-2 C-terminal 6His-tagged DdlB expressed in Escherichia coli LMG194 assessed as Vmax/Km of ATP at 1 uM by Biomol Green reagent assay (reference value: 0.3 /min)"}, "[20]": {"target": "Carbonic anhydrase 2 (Homo sapiens) (UniProt P00918)", "assay": "Inhibition of human carbonic anhydrase 2 at 10 uM using 4-nitrophenyl acetate as substrate after 20 mins by spectrophotometric analysis relative to control"}, "[21]": {"target": "Secretory phospholipase A2 (Homo sapiens) (UniProt Q5R387+Q9NZK7+P14555+Q9BZM2+Q9UNK4+P39877+O15496+P04054+Q9NZ20+Q9BZM1+Q9BX93)", "assay": "Inhibition of human sPLA2 at 10 uM relative to control", "assay_type": "protein assay"}, "[22]": {"target": "Indoleamine 2,3-dioxygenase 1 (Homo sapiens) (UniProt P14902)", "sequence (P14902 whole entry, looked up)": "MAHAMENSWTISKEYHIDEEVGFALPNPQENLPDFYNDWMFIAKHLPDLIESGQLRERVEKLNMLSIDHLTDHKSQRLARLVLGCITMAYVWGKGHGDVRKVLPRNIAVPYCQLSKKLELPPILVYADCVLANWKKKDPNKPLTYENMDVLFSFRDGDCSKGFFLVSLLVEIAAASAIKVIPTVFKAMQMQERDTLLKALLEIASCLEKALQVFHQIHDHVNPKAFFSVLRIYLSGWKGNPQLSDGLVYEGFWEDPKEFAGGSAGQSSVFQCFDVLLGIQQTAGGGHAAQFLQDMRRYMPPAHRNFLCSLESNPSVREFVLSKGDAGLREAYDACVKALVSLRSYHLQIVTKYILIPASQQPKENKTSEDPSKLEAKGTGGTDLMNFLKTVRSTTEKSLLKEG", "assay": "Inhibition of human IDO at 10 uM using L-tryptophan as substrate after 30 mins by Ehrlich's reagent based assay relative to control"}, "[23]": {"target": "Prothrombin (Homo sapiens) (UniProt P00734)", "assay": "Inhibition of human thrombin at 10 uM using Z-GPR-AMC as substrate after 30 mins by fluorimetric analysis relative to control"}, "[24]": {"tested_on": "Escherichia coli", "assay": "Antibacterial activity against Escherichia coli ATCC 25922 after 18 to 24 hrs by microdilution assay", "assay_type": "functional, organism-based"}, "[25]": {"tested_on": "Bacillus cereus", "assay": "Inhibition of Bacillus cereus beta-lactamase at 10 uM using nitrocefin as substrate preincubated for 15 mins followed by substrate addition and measured after 60 mins by spectrophotometric analysis relative to control"}, "[26]": {"target": "Monoglyceride lipase (Homo sapiens) (UniProt Q99685)", "assay": "Inhibition of human MAGL at 10 uM relative to control"}},
  "note": "Activity calls are given as the source filed them. No cut-off for these calls is given here.",
  "data": [
    {"smiles": "O=C(NNC(=S)Nc1ccc(Cl)c(Cl)c1)c1ccccc1O", "values": [
      {"measurement": "inhibition", "setting": "[1]", "value": "Active"},
      {"measurement": "inhibition", "setting": "[2]", "value": "< 30", "unit": "%"},
      {"measurement": "inhibition", "setting": "[3]", "value": "< 30", "unit": "%"},
      {"measurement": "inhibition", "setting": "[4]", "value": "< 30", "unit": "%"},
      {"measurement": "inhibition", "setting": "[5]", "value": "< 30", "unit": "%"},
      {"measurement": "inhibition", "setting": "[6]", "value": "< 30", "unit": "%"},
      {"measurement": "inhibition", "setting": "[7]", "value": "Active"},
      {"measurement": "Vmax/Km", "setting": "[8]", "value": 0.1, "unit": "min⁻¹"},
      {"measurement": "inhibition", "setting": "[9]", "value": "< 30", "unit": "%"},
      {"measurement": "inhibition", "setting": "[10]", "value": "< 30", "unit": "%"},
      {"measurement": "inhibition", "setting": "[11]", "value": "< 30", "unit": "%"},
      {"measurement": "inhibition", "setting": "[12]", "value": "< 30", "unit": "%"},
      {"measurement": "inhibition", "setting": "[13]", "value": "< 30", "unit": "%"},
      {"measurement": "MIC", "setting": "[14]", "value": "inactive"},
      {"measurement": "inhibition", "setting": "[15]", "value": "< 30", "unit": "%"},
      {"measurement": "Activity", "setting": "[16]", "value": "Active"},
      {"measurement": "inhibition", "setting": "[17]", "value": "< 30", "unit": "%"},
      {"measurement": "Vmax/Km", "setting": "[18]", "value": 6.93, "unit": "min⁻¹"},
      {"measurement": "Vmax/Km", "setting": "[19]", "value": 0.33, "unit": "min⁻¹"},
      {"measurement": "inhibition", "setting": "[20]", "value": "< 30", "unit": "%"},
      {"measurement": "inhibition", "setting": "[21]", "value": "< 30", "unit": "%"},
      {"measurement": "inhibition", "setting": "[22]", "value": "< 30", "unit": "%"},
      {"measurement": "inhibition", "setting": "[23]", "value": "< 30", "unit": "%"},
      {"measurement": "MIC", "setting": "[24]", "value": "inactive"},
      {"measurement": "inhibition", "setting": "[25]", "value": "< 30", "unit": "%"},
      {"measurement": "inhibition", "setting": "[26]", "value": "< 30", "unit": "%"}
    ]}
  ]
}
